Measured values: patent publication US4327224A, “α-[(alkylamino)alkyl]-4-hydroxy-3-(alkylthio)benzenemethanols, derivatives thereof and intermediates therefor” (Sterling Drug Inc., priority 1976, dated 1982)
Where a name gives a salt, the structure may show the parent alone.

What was measured:
β-adrenergic [1] = assay: Inhibition of isoproterenol-induced heart rate elevation in the pentobarbitalized dog (β-adrenergic blocking activity); type: in vivo; conditions: test compound 1.0 mg/kg, isoproterenol intravenous
[2] = test system: respiratory smooth muscle; assay: Inhibition of histamine-induced bronchoconstriction in the dog (β-adrenergic stimulant activity); type: in vivo; conditions: 100-200 mcg/kg, over a period of 2 hours
cardiac muscle = assay: Increase in heart rate (β-adrenergic stimulant activity); type: in vivo; conditions: dog; 100-200 mcg/kg
systolic blood pressure = assay: Reduction in systolic blood pressure in the unanesthetized spontaneous hypertensive rat (antihypertensive activity); type: in vivo; conditions: single oral medication
Description: Antihypertensive activity was determined on the basis of the observed reduction in systolic blood pressure measured according to the method of H. Kersten et al., J. Lab. and Clin. Med. 32, 1090 (1947) following a single oral medication in the unanesthetized spontaneous hypertensive rat described by Okamato et al., Japan Circulation J. 27, 282 (1963).

[3] = test system: hind limb vasculature of the anesthetized dog; isolated rabbit ear artery; assay: Reduction in perfusion pressure in hind limb vasculature of the anesthetized dog and in the isolated rabbit ear artery (vasodilator activity); type: in vivo
Source text: 17, 357 (1972), and also on the basis of percent reduction in perfusion pressure as measured in the isolated rabbit ear artery according to the method described by De La Lande et al. Aust. J. Exp. Biol. Med. Sci. 43, 639 (1965).

β-adrenergic [4] = conditions: Kaiser et al. 1975; cited from earlier work
β-adrenergic [5] = conditions: Kaiser et al. 1975; cited from earlier work; remark: listed apart in the source

Row | SMILES | % Inhibition of Heart Rate Elevation (β-adrenergic [1]) [%] | inhibition of the histamine-induced bronchoconstriction [2] [%] | increase in heart rate (β-adrenergic stimulant activity) (cardiac muscle) | antihypertensive activity (reduction in systolic blood pressure) (systolic blood pressure) | vasodilator activity (reduction in perfusion pressure) [3] | β-adrenergic agonist activity (β-adrenergic [4]) | β-adrenergic antagonistic activity (β-adrenergic [5])
1 | CSc1cc(C(O)CNC(C)(C)C)ccc1OC(C)=O (stereo not drawn) [Example 3, α-[(tert-butylamino)methyl]-4-hydroxy-3-(methylthio)benzenemethanol 4-acetate hydrochloride] | 50 | 50 | increase in heart rate | antihypertensive | vasodilator activity | – | –
2 | C[S+]([O-])c1cc(C(O)CNC(C)(C)C)ccc1O (stereo not drawn) [Example 4, α-[(t-butylamino)methyl]-4-hydroxy-3-(methylsulfinyl)benzenemethanolmethanesulfonate] | 100 | 50 | increase in heart rate | antihypertensive | vasodilator activity | – | –
3 | CC(C)(C)NCC(O)c1ccc(O)c(S(C)(=O)=O)c1 (stereo not drawn) [Example 6, α-[(t-butylamino)methyl]-4-hydroxy-3-(methylsulfonyl)benzenemethanolmethanesulfonate] | 87 | – | – | – | – | – | –
4 | CC(C)(C)NCC(O)c1ccc(O)c(S(C)(=O)=O)c1 (stereo not shown) [drawing 3] | – | – | – | – | – | weakly active | exhibits β-adrenergic antagonistic activity
